Experimental data from US20170210723A1, “MOLECULES HAVING PESTICIDAL UTILITY, AND INTERMEDIATES, COMPOSITIONS, AND PROCESSES, RELATED THERETO” (priority 2016, published 2017).

Experiments:
Type in all cases: in vivo
[1] = system: Beet Armyworm (Spodoptera exigua); assay: Bioassays on BAW, 128-well diet tray assay; details: for mortality at 50 µg/cm2 / mortality at 0.05 µg/cm2 / mortality at 0.5 µg/cm2 / mortality at 5 µg/cm2: Spodoptera exigua; for mortality at 50 µg/cm2: 168 h, read-out: BAW % Control (or Mortality) rating; for mortality at 0.05 µg/cm2: 0.05 μg/cm^2; for mortality at 0.05 µg/cm2 / mortality at 0.5 µg/cm2 / mortality at 5 µg/cm2: read-out: BAW Percent control (or mortality); for mortality at 0.5 µg/cm2: 0.5 μg/cm^2; for mortality at 5 µg/cm2: 5 μg/cm^2
Procedure: Bioassays on BAW were conducted using a 128-well diet tray assay. One to five second instar BAW larvae were placed in each well (3 mL) of the diet tray that had been previously filled with 1 mL of artificial diet to which 50 μg/cm^2 of the test molecule (dissolved in 50 μL of 90:10 acetone-water mixture) had been applied (to each of eight wells) and then allowed to dry. Trays were covered with a clear self-adhesive cover and held at 25° C., 14:10 light-dark for five to seven days. Percent mortality was recorded for the larvae in each well; activity in the eight wells was then averaged. The results are indicated in the table entitled “Table ABC: Biological Results” (See Table Section).
(§1) Bioassays on BAW and CL were conducted according to the procedures outlined in Example A: Bioassays on Beet Armyworm (“BAW”) and Cabbage Looper (“CL”) using the indicated concentrations.

[2] = system: Cabbage Looper (Trichoplusia ni); assay: Bioassays on CL, 128-well diet tray assay; details: for mortality at 50 µg/cm2 / mortality at 0.05 µg/cm2 / mortality at 0.5 µg/cm2 / mortality at 5 µg/cm2: Trichoplusia ni; for mortality at 50 µg/cm2: 168 h, read-out: CL % Control (or Mortality) rating; for mortality at 0.05 µg/cm2: 0.05 μg/cm^2; for mortality at 0.05 µg/cm2 / mortality at 0.5 µg/cm2 / mortality at 5 µg/cm2: read-out: CL Percent control (or mortality); for mortality at 0.5 µg/cm2: 0.5 μg/cm^2; for mortality at 5 µg/cm2: 5 μg/cm^2
Procedure: Bioassays on CL were conducted using a 128-well diet tray assay.
One to five second instar CL larvae were placed in each well (3 mL) of the diet tray that had been previously filled with 1 mL of artificial diet to which 50 μg/cm^2 of the test molecule (dissolved in 50 μL of 90:10 acetone-water mixture) had been applied (to each of eight wells) and then allowed to dry. Trays were covered with a clear self-adhesive cover and held at 25° C., 14:10 light-dark for five to seven days. Percent mortality was recorded for the larvae in each well; activity in the eight wells was then averaged. The results are indicated in the table entitled “Table ABC: Biological Results” (See Table Section).
as §1

[3] = system: Yellow Fever Mosquito (Aedes aegypti); assay: Bioassays on Yellow Fever Mosquito larvae, 96-well plate; details: from 4000 ppm DMSO master plate, about 1 day-old larvae, 3 days
Procedure: Master plates containing 400 μg of a molecule dissolved in 100 μL of dimethyl sulfoxide (DMSO) (equivalent to a 4000 ppm solution) are used. A master plate of assembled molecules contains 15 μL per well. To this plate, 135 μL of a 90:10 water:acetone mixture is added to each well. A robot (Biomek® NXP Laboratory Automation Workstation) is programmed to dispense 15 μL aspirations from the master plate into an empty 96-well shallow plate (“daughter” plate). There are 6 reps (“daughter” plates) created per master. The created daughter plates are then immediately infested with YFM larvae.
The day before plates are to be treated, mosquito eggs are placed in Millipore water containing liver powder to begin hatching (4 g. into 400 mL). After the daughter plates are created using the robot, they are infested with 220 μL of the liver powder/larval mosquito mixture (about 1 day-old larvae). After plates are infested with mosquito larvae, a non-evaporative lid is used to cover the plate to reduce drying. Plates are held at room temperature for 3 days prior to grading. After 3 days, each well is observed and scored based on mortality. The results are indicated in the table entitled “Table ABC: Biological Results” (See Table Section). AGRICULTURALLY ACCEPTABLE ACID ADDITION SALTS, SALT DERIVATIVES, SOLVATES, ESTER DERIVATIVES, POLYMORPHS, ISOTOPES, AND RADIONUCLIDES

[4] = 50 μg/cm^2 on artificial diet, second instar larvae, five to seven days

## O=C(NCCSCC(F)(F)F)c1ccc(/C=C/C(c2cc(Cl)c(Cl)c(Cl)c2)C(F)(F)F)cc1Br (centres unmarked) [F1, (E)-2-bromo-4-(4,4,4-trifluoro-3-(3,4,5-trichlorophenyl)but-1-en-1-yl)-N-(2-((2,2,2-trifluoroethyl)thio)ethyl)benzamide]
[1]; [4]
  mortality at 50 µg/cm2: 50 to 100%
[2]; [4]
  mortality at 50 µg/cm2: 50 to 100%
[3]
  YFM % Control (or Mortality) rating: A (80-100)

## O=C(NCC[S+]([O-])Cc1ccccc1)c1ccc(/C=C/C(c2cc(Cl)c(Cl)c(Cl)c2)C(F)(F)F)cc1Br (centres unmarked) [F2, (E)-N-(2-(Benzylsulfinyl)ethyl)-2-bromo-4-(4,4,4-trifluoro-3-(3,4,5-trichlorophenyl)but-1-en-1-yl)benzamide]
[1]; [4]
  mortality at 50 µg/cm2: 50 to 100%
[2]; [4]
  mortality at 50 µg/cm2: 50 to 100%
[3]
  YFM % Control (or Mortality) rating: A (80-100)

## O=C(NCC[S+]([O-])CC(F)(F)F)c1ccc(/C=C/C(c2cc(Cl)c(Cl)c(Cl)c2)C(F)(F)F)cc1Br (centres unmarked) [F3, (E)-2-bromo-4-(4,4,4-trifluoro-3-(3,4,5-trichlorophenyl)but-1-en-1-yl)-N-(2-((2,2,2-trifluoroethyl)sulfinyl)ethyl)benzamide]
[1]; [4]
  mortality at 50 µg/cm2: 50 to 100%
[2]; [4]
  mortality at 50 µg/cm2: 50 to 100%
[3]
  YFM % Control (or Mortality) rating: B (More than 0-Less than 80)

## CC[C@H](CSCCC(F)(F)F)NC(=O)c1ccc(/C=C/C(c2cc(Cl)c(Cl)c(Cl)c2)C(F)(F)F)cc1C(F)(F)F (stereo partly drawn) [F11, 4-((E)-4,4,4-trifluoro-3-(3,4,5-trichlorophenyl)but-1-en-1-yl)-2-(trifluoromethyl)-N—((R)-1-((3,3,3-trifluoropropyl)thio)butan-2-yl)benzamide]
[1]; [4]
  mortality at 50 µg/cm2: 50 to 100%
[2]; [4]
  mortality at 50 µg/cm2: 50 to 100%
[3]
  YFM % Control (or Mortality) rating: B (More than 0-Less than 80)

## CC[C@H](CSCC(F)(F)F)NC(=O)c1ccc(/C=C/C(c2cc(Cl)c(Cl)c(Cl)c2)C(F)(F)F)cc1C(F)(F)F (stereo partly drawn) [F12, 4-((E)-4,4,4-Trifluoro-3-(3,4,5-trichlorophenyl)but-1-en-1-yl)-N—((R)-1-((2,2,2-trifluoroethyl)thio)butan-2-yl)-2-(trifluoromethyl)benzamide]
[1]; [4]
  mortality at 50 µg/cm2: 50 to 100%
[2]; [4]
  mortality at 50 µg/cm2: 50 to 100%
[3]
  YFM % Control (or Mortality) rating: A (80-100)

## CC[C@H](CSCC1CC1(F)F)NC(=O)c1ccc(/C=C/C(c2cc(Cl)c(Cl)c(Cl)c2)C(F)(F)F)cc1C(F)(F)F (stereo partly drawn) [F13, N-((2R)-1-(((2,2-Difluorocyclopropyl)methyl)thio)butan-2-yl)-4-((E)-4,4,4-trifluoro-3-(3,4,5-trichlorophenyl)but-1-en-1-yl)-2-(trifluoromethyl)benzamide]
[1]; [4]
  mortality at 50 µg/cm2: 50 to 100%
[2]; [4]
  mortality at 50 µg/cm2: 50 to 100%
[3]
  YFM % Control (or Mortality) rating: A (80-100)

## CC(C)[C@H](CSCC(F)(F)F)NC(=O)c1ccc(/C=C/C(c2cc(Cl)c(Cl)c(Cl)c2)C(F)(F)F)cc1C(F)(F)F (stereo partly drawn) [F14, N—((R)-3-Methyl-1-((2,2,2-trifluoroethyl)thio)butan-2-yl)-4-((E)-4,4,4-trifluoro-3-(3,4,5-trichlorophenyl)but-1-en-1-yl)-2-(trifluoromethyl)benzamide]
[1]; [4]
  mortality at 50 µg/cm2: 50 to 100%
[2]; [4]
  mortality at 50 µg/cm2: 50 to 100%
[3]
  YFM % Control (or Mortality) rating: A (80-100)

## CC[C@H](CS(=O)(=O)CCC(F)(F)F)NC(=O)c1ccc(/C=C/C(c2cc(Cl)c(Cl)c(Cl)c2)C(F)(F)F)cc1C(F)(F)F (stereo partly drawn) [F21, 4-((E)-4,4,4-Trifluoro-3-(3,4,5-trichlorophenyl)but-1-en-1-yl)-2-(trifluoromethyl)-N—((R)-1-((3,3,3-trifluoropropyl)sulfonyl)butan-2-yl)benzamide]
[1]; [4]
  mortality at 50 µg/cm2: 50 to 100%
[2]; [4]
  mortality at 50 µg/cm2: 50 to 100%
[3]
  YFM % Control (or Mortality) rating: A (80-100)

## C[C@H](CS(=O)(=O)CC(F)(F)F)NC(=O)c1ccc(/C=C/C(c2cc(Cl)c(Cl)c(Cl)c2)C(F)(F)F)cc1C(F)(F)F (stereo partly drawn) [F24, 4-((E)-4,4,4-Trifluoro-3-(3,4,5-trichlorophenyl)but-1-en-1-yl)-N—((R)-1-((2,2,2-trifluoroethyl)sulfonyl)propan-2-yl)-2-(trifluoromethyl)benzamide]
[1]; [4]
  mortality at 50 µg/cm2: 50 to 100%
[1]
  mortality at 0.05 µg/cm2: 100%
  mortality at 0.5 µg/cm2: 100%
  mortality at 5 µg/cm2: 100%
[2]; [4]
  mortality at 50 µg/cm2: 50 to 100%
[2]
  mortality at 0.05 µg/cm2: 100%
  mortality at 0.5 µg/cm2: 100%
  mortality at 5 µg/cm2: 100%
[3]
  YFM % Control (or Mortality) rating: A (80-100)

## CS(=O)(=O)CC[C@@H](NC(=O)c1ccc(/C=C/C(c2cc(Cl)c(Cl)c(Cl)c2)C(F)(F)F)cc1C(F)(F)F)C(=O)NCC(F)(F)F (stereo partly drawn) [F27, N—((R)-4-(Methylsulfonyl)-1-oxo-1-((2,2,2-trifluoroethyl)amino)butan-2-yl)-4-((E)-4,4,4-trifluoro-3-(3,4,5-trichlorophenyl)but-1-en-1-yl)-2-(trifluoromethyl)benzamide]
[1]; [4]
  BAW % Control (or Mortality) rating: A (50-100)
[2]; [4]
  CL % Control (or Mortality) rating: A (50-100)
[3]
  YFM % Control (or Mortality) rating: A (80-100)

## CSCC[C@@H](NC(=O)c1ccc(/C=C/C(c2cc(Cl)c(Cl)c(Cl)c2)C(F)(F)F)cc1C(F)(F)F)C(=O)NCC(F)(F)F (stereo partly drawn) [F28, N—((R)-4-(Methylthio)-1-oxo-1-((2,2,2-trifluoroethyl)amino)butan-2-yl)-4-((E)-4,4,4-trifluoro-3-(3,4,5-trichlorophenyl)but-1-en-1-yl)-2-(trifluoromethyl)benzamide]
[1]; [4]
  mortality at 50 µg/cm2: 50 to 100%
[2]; [4]
  mortality at 50 µg/cm2: 50 to 100%
[3]
  YFM % Control (or Mortality) rating: A (80-100)

## C[C@H](CSCC(F)(F)F)NC(=O)c1ccc(/C=C/C(c2cc(Cl)c(F)c(Cl)c2)C(F)(F)F)cc1Br (stereo partly drawn) [F34, 2-Bromo-4-((E)-3-(3,5-dichloro-4-fluorophenyl)-4,4,4-trifluorobut-1-en-1-yl)-N—((R)-1-((2,2,2-trifluoroethyl)thio)propan-2-yl)benzamide]
[1]; [4]
  mortality at 50 µg/cm2: 50 to 100%
[2]; [4]
  mortality at 50 µg/cm2: 50 to 100%
[3]
  YFM % Control (or Mortality) rating: A (80-100)

## C[C@H](CS(=O)(=O)CC(F)(F)F)NC(=O)c1ccc(/C=C/C(c2cc(Cl)c(F)c(Cl)c2)C(F)(F)F)cc1C(F)(F)F (stereo partly drawn) [F36, 4-((E)-3-(3,5-Dichloro-4-fluorophenyl)-4,4,4-trifluorobut-1-en-1-yl)-N—((R)-1-((2,2,2-trifluoroethyl)sulfonyl)propan-2-yl)-2-(trifluoromethyl)benzamide]
[1]; [4]
  mortality at 50 µg/cm2: 50 to 100%
[2]; [4]
  mortality at 50 µg/cm2: 50 to 100%
[3]
  YFM % Control (or Mortality) rating: A (80-100)

## C[C@H](C[S+]([O-])CC(F)(F)F)NC(=O)c1ccc(/C=C/C(c2cc(Cl)c(F)c(Cl)c2)C(F)(F)F)cc1C(F)(F)F (some centres unmarked) [F37]
[1]; [4]
  mortality at 50 µg/cm2: 50 to 100%
[2]; [4]
  mortality at 50 µg/cm2: 50 to 100%
[3]
  YFM % Control (or Mortality) rating: A (80-100)

## C[C@H](C[S+]([O-])CC(F)(F)F)NC(=O)c1ccc(/C=C/C(c2cc(Cl)c(Cl)c(Cl)c2)C(F)(F)F)cc1Br (stereo partly drawn) [F39, 2-Bromo-4-((E)-4,4,4-trifluoro-3-(3,4,5-trichlorophenyl)but-1-en-1-yl)-N-((2R)-1-((2,2,2-trifluoroethyl)sulfinyl)propan-2-yl)benzamide]
[1]; [4]
  mortality at 50 µg/cm2: 50 to 100%
[2]; [4]
  mortality at 50 µg/cm2: 50 to 100%
[3]
  YFM % Control (or Mortality) rating: A (80-100)

## C[C@H](CS(=O)(=O)CC(F)(F)F)NC(=O)c1ccc(/C=C/C(c2cc(Cl)c(Cl)c(Cl)c2)C(F)(F)F)cc1 (stereo partly drawn) [FC78, 4-((E)-4,4,4-Trifluoro-3-(3,4,5-trichlorophenyl)but-1-en-1-yl)-N—((R)-1-((2,2,2-trifluoroethyl)sulfonyl)propan-2-yl)benzamide]
[1]; [4]
  mortality at 50 µg/cm2: 50 to 100%
[1]
  mortality at 0.05 µg/cm2: 0%
  mortality at 0.5 µg/cm2: 19%
  mortality at 5 µg/cm2: 100%
[2]; [4]
  mortality at 50 µg/cm2: 50 to 100%
[2]
  mortality at 0.05 µg/cm2: 0%
  mortality at 0.5 µg/cm2: 7%
  mortality at 5 µg/cm2: 100%
